According to patent publication US20160031935A1, “SMALL MOLECULE MODULATORS OF PCSK9 AND METHODS OF USE THEREOF” (ADAERATA, LIMITED PARTNERSHIP, priority 2013, published 2016):

Legend:
[1] = target: T1, WT PCSK9(+V5) (Homo sapiens, UniProt Q8NBP7); assay: PCSK9 secretion assay: PCSK9 in media and cells by ELISA (media/cell ratio); type: cell-based; details: 10 μM; HepG2 cells stably expressing WT PCSK9(+V5), 24 h
T1 construct: expressed in transfected cells
Description: In 12-well plates (Greiner BioOne™), HepG2 cells stably expressing PCSK9(+V5) were seeded at a density of 1×10^6/well in complete media and incubated for 20 hours, at 37° C. Cells were rinsed once with 2 ml/well of D-PBS (+Calcium, +Magnesium) (Wisent) followed by addition of 0.5 ml/well incubation media (+0.07% BSA) containing the inhibitory compounds at various concentrations (11, 33, 100 μM) or DMSO control (0.4% final) and overnight (24 hours) incubation. 24 hours-conditioned media was collected, centrifuged at 130×g for 5 minutes to remove cell debris, and the supernatant removed for PCSK9 quantification by ELISA (100 μl of 1:30 dilution). Cells were washed once with ice-cold D-PBS (+Calcium, +Magnesium) (Wisent), then lysed with 250 ul/well of radioimmunoprecipitation assay buffer (RIPA) (50 mM Tris-HCl, pH 7.8, 150 mM NaCl, 1% Nonident P-40, 0.5% sodium deoxycholate, 0.1% SDS) containing a mixture of protease inhibitors (Roche Applied Science) for 30 min on ice, and pelleted at 11,300×g for 5 minutes. Supernatant was removed for cellular PCSK9 quantification by ELISA (100 μl of 1:20 dilution) and total protein determination by the Bio-Rad™ DC Protein assay (Bio-Rad) (4 μl cell lysate in duplicate) (Dubuc G, Tremblay M, Pare G, Jacques H, Hamelin J, Benjannet S, Boulet L, Genest J, Bernier L, Seidah N G, Davignon J. 2010. A new method for measurement of total plasma PCSK9: clinical applications. J Lipid Res. 51:140-149). The ratio of PCSK9 concentration of media (M) over cells (C) was determined and compounds which decreased M/C by >30% were considered active.
HepG2 cells stably expressing WT PCSK9(+V5) were incubated overnight (24 hours) in the absence (DMSO) or presence of 10 μM, 100 μM or increasing concentrations (11, 33, 100 μM) of a tested compound. 24 hours-conditioned media was collected, centrifuged, and the supernatant removed for PCSK9 quantification by ELISA (100 μl of 1:30 dilution). Cells were lysed with 250 ul/well of radioimmunoprecipitation assay buffer (RIPA) (50 mM Tris-HCl, pH 7.8, 150 mM NaCl, 1% Nonident P-40, 0.5% sodium deoxycholate, 0.1% SDS) containing a mixture of protease inhibitors (Roche Applied Science), and pelleted at 11,300×g for 5 minutes. Supernatant was removed for cellular PCSK9 quantification by ELISA (100 μl of 1:20 dilution) and total protein determination by the Bio-Rad DC Protein assay (Bio-Rad) (Dubuc G, Tremblay M, Pare G, Jacques H, Hamelin J, Benjannet S, Boulet L, Genest J, Bernier L, Seidah N G, Davignon J. 2010. A new method for measurement of total plasma PCSK9: clinical applications. J Lipid Res. 51:140-149). Over 165 compounds were subjected to a first screen at 100 μM by PCSK9 secretion assay.

[2] = system: HepG2 cells; assay: Cell viability assay (cell density during the PCSK9 secretion assay); type: cell-based, human; details: 33 μM
Description: For the cell viability assay, the cell density of HepG2 cells was measured in the presence of 33 μM of compounds or in the presence of DMSO (control) during the PCSK9 secretion assay described in Example 92. Table II below presents compounds with a low toxicity at 33.3 μM or less.

T1 sequence (Q8NBP7 153-692): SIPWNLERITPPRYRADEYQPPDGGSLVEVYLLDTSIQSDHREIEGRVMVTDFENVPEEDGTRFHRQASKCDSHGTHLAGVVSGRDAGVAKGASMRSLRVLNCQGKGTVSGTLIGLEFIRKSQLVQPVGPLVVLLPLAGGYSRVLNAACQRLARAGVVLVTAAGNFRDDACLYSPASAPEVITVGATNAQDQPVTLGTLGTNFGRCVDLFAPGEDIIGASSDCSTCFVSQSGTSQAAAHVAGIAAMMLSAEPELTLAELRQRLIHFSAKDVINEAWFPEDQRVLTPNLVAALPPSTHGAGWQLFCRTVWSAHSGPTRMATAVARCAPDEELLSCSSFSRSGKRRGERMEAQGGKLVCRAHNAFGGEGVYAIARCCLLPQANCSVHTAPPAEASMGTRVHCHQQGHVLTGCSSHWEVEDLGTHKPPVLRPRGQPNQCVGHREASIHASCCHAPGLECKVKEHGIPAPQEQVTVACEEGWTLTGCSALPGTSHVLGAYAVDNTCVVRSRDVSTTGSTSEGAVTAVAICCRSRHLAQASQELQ

| SMILES | Secretion Inhibition (% Activity) [1] [%] | Cell viability (% DMSO Cnt) [2] [% DMSO Cnt] |
| --- | --- | --- |
| CSCC[C@H](NC(=O)c1ccc(-c2ccccc2)cc1)C(=O)N[C@@H](Cc1ccccc1)C(=O)N[C@@H](C)C(=O)NC(CCC(N)=O)C(O)C(F)(F)F (stereo partly drawn) [Example 75, N-((5S,8S,11S)-17-amino-8-benzyl-11-methyl-6,9,12,17-tetraoxo-14-(2,2,2-trifluoro-1-hydroxyethyl)-2-thia-7,10,13-triazaheptadecan-5-yl)-[1,1′-biphenyl]-4-carboxamide] | 100 |  |
| CCCCCCCCCC(=O)N[C@H](C(=O)N[C@@H](Cc1ccccc1)C(=O)N[C@H](C(=O)NC(CCC(N)=O)C(O)C(F)(F)F)C(C)C)C(C)C (stereo partly drawn) [Example 58, N-((2S)-1-(((2S)-1-(((2S)-1-((6-amino-1,1,1-trifluoro-2-hydroxy-6-oxohexan-3-yl)amino)-3-methyl-1-oxobutan-2-yl)amino)-1-oxo-3-phenylpropan-2-yl)amino)-3-methyl-1-oxobutan-2-yl)decanamide] | 81 | 93 |
| CC(C)[C@H](NC(=O)c1ccc(-c2ccccc2)cc1)C(=O)N[C@@H](Cc1ccccc1)C(=O)NC1(C(=O)N[C@@H](CCC(N)=O)C(O)C(F)(F)F)CCC1 (single isomer, unassigned) [Example 66] | 92 |  |
| CC(C)[C@H](NC(=O)c1ccc(C2(C(F)(F)F)N=N2)cc1)C(=O)N[C@@H](Cc1ccccc1)C(=O)N[C@@H](C)C(=O)NC(CCC(N)=O)C(O)C(F)(F)F (stereo partly drawn) [Example 29, N-((2S)-1-(((2S)-1-(((2S)-1-((6-Amino-1,1,1-trifluoro-2-hydroxy-6-oxohexan-3-yl)amino)-1-oxopropan-2-yl)amino)-1-oxo-3-phenylpropan-2-yl)amino)-3-methyl-1-oxobutan-2-yl)-4-(3-(trifluoromethyl)-3H-diazirin-3-yl)benzamide] | 83 | 88 |
| CCCCCCCCCC(=O)N[C@H](C(=O)N[C@@H](Cc1ccccc1)C(=O)N[C@H](C)C(=O)N[C@@H](CCC(N)=O)C(O)C(F)(F)F)C(C)C (single isomer, unassigned) [Example 60] | 73 | 80 |
| CCCCCCCCCC(=O)N[C@H](C(=O)N[C@@H](Cc1ccccc1)C(=O)N[C@@H](Cc1ccccc1)C(=O)NC(CCC(N)=O)C(O)C(F)(F)F)C(C)C (stereo partly drawn) [Example 59, N-((2S)-1-(((2S)-1-(((2S)-1-((6-Amino-1,1,1-trifluoro-2-hydroxy-6-oxohexan-3-yl)amino)-1-oxo-3-phenylpropan-2-yl)amino)-1-oxo-3-phenylpropan-2-yl)amino)-3-methyl-1-oxobutan-2-yl)decanamide] | 82 | 83 |

Continued, in another order:

| Secretion Inhibition (% Activity) [1] [%] | SMILES | Cell viability (% DMSO Cnt) [2] [% DMSO Cnt] |
| --- | --- | --- |
| 88 | CC(C)[C@H](NC(=O)c1ccc(-c2ccccc2)cc1)C(=O)N[C@@H](Cc1ccccc1)C(=O)N[C@@H](C)C(=O)NC(CCC(N)=O)C(O)C(F)(F)F (stereo partly drawn) [Example 24, N-((2S)-1-(((2S)-1-(((2S)-1-((6-Amino-1,1,1-trifluoro-2-hydroxy-6-oxohexan-3-yl)amino)-1-oxopropan-2-yl)amino)-1-oxo-3-phenylpropan-2-yl)amino)-3-methyl-1-oxobutan-2-yl)-[1,1′-biphenyl]-4-carboxamide] |  |
| 79 | CC(C)[C@H](NC(=O)c1ccc(-c2ccc(F)cc2)cc1)C(=O)N[C@@H](Cc1ccccc1)C(=O)N[C@@H](C)C(=O)NC(CCC(N)=O)C(O)C(F)(F)F (stereo partly drawn) [Example 52, N-((2S)-1-(((2S)-1-(((2S)-1-((6-Amino-1,1,1-trifluoro-2-hydroxy-6-oxohexan-3-yl)amino)-1-oxopropan-2-yl)amino)-1-oxo-3-phenylpropan-2-yl)amino)-3-methyl-1-oxobutan-2-yl)-4′-fluoro-[1,1′-biphenyl]-4-carboxamide] |  |
| 74 | CC(C)[C@H](NC(=O)c1ccc(-c2ccccc2)cc1)C(=O)N[C@H](Cc1ccccc1)C(=O)N[C@@H](C)C(=O)NC(CCC(N)=O)C(O)C(F)(F)F (stereo partly drawn) [Example 70, N-((2S)-1-(((2R)-1-(((2S)-1-((6-Amino-1,1,1-trifluoro-2-hydroxy-6-oxohexan-3-yl)amino)-1-oxopropan-2-yl)amino)-1-oxo-3-phenylpropan-2-yl)amino)-3-methyl-1-oxobutan-2-yl)-[1,1′-biphenyl]-4-carboxamide] |  |
